Our source for the mutagenic call values is PubChem BioAssay AID1259407 (Chemical Carcinogenesis Research Information System (CCRIS), 2018).

This data set concerns CCRIS mutagenicity, Ames/micronucleus/aberration tests. The experiment in a line: CCRIS mutagenicity studies.
Where [1] appears, read: Test System: AMES SALMONELLA TYPHIMURIUM, Strain/Indicator: TA98, Metabolic Activation: NONE, Method: PREINCUBATION
Where [2] appears, read: Test System: AMES SALMONELLA TYPHIMURIUM, Strain/Indicator: TA98, Metabolic Activation: NONE, Method: STANDARD PLATE.
Where [3] appears, read: Test System: AMES SALMONELLA TYPHIMURIUM, Strain/Indicator: TA98, Metabolic Activation: RAT, LIVER, S-9, AROCLOR 1254, Method: PREINCUBATION
Where [4] appears, read: Test System: AMES SALMONELLA TYPHIMURIUM, Strain/Indicator: TA100, Metabolic Activation: NONE, Method: PREINCUBATION
Where [5] appears, read: Test System: AMES SALMONELLA TYPHIMURIUM, Strain/Indicator: TA100, Metabolic Activation: NONE, Method: STANDARD PLATE.
The mark [6] stands for this setting: Test System: AMES SALMONELLA TYPHIMURIUM, Strain/Indicator: TA100, Metabolic Activation: RAT, LIVER, S-9, AROCLOR 1254, Method: PREINCUBATION
Setting [7] is: Test System: AMES SALMONELLA TYPHIMURIUM, Strain/Indicator: TA1535, Metabolic Activation: NONE, Method: PREINCUBATION
Where [8] appears, read: Test System: AMES SALMONELLA TYPHIMURIUM, Strain/Indicator: TA1535, Metabolic Activation: RAT, LIVER, S-9, AROCLOR 1254, Method: PREINCUBATION

Active and inactive are the calls of the source. No rule for the calls is given here.

Regarding `O=C/C(Br)=C/c1ccccc1`, the mutagenic call runs as follows: under setting [1], “active; positive”; (Test System: AMES SALMONELLA TYPHIMURIUM, Strain/Indicator: TA98, Metabolic Activation: NONE, Method: PREINCUBATION, LIQUID INCUBATION) “active; positive”; under setting [2], “active; positive”; under setting [3], “active; positive”; (Test System: AMES SALMONELLA TYPHIMURIUM, Strain/Indicator: TA98, Metabolic Activation: RAT, LIVER, S-9, PCB, Method: STANDARD PLATE) “active; positive”; under setting [4], “active; positive”. Also, the mutagenic call by setting is: under setting [5], “active; positive”; under setting [6], “inactive; negative”; (Test System: AMES SALMONELLA TYPHIMURIUM, Strain/Indicator: TA100, Metabolic Activation: RAT, LIVER, S-9, PCB, Method: STANDARD PLATE) “active; positive”; under setting [7], “active; positive”; (Test System: AMES SALMONELLA TYPHIMURIUM, Strain/Indicator: TA1535, Metabolic Activation: NONE, Method: PREINCUBATION, LIQUID INCUBATION) “active; positive”; under setting [8], “inactive; negative”. Further, the mutagenic call runs as follows: (Test System: AMES SALMONELLA TYPHIMURIUM, Strain/Indicator: TA1538, Metabolic Activation: NONE, Method: PREINCUBATION) “active; positive”; (Test System: AMES SALMONELLA TYPHIMURIUM, Strain/Indicator: TA1538, Metabolic Activation: NONE, Method: PREINCUBATION, LIQUID INCUBATION) “active; positive”; (Test System: AMES SALMONELLA TYPHIMURIUM, Strain/Indicator: TA1538, Metabolic Activation: RAT, LIVER, S-9, AROCLOR 1254, Method: PREINCUBATION) “active; positive”; (Test System: AMES SALMONELLA TYPHIMURIUM, Strain/Indicator: TA2637, Metabolic Activation: NONE, Method: STANDARD PLATE) “active; positive”; (Test System: AMES SALMONELLA TYPHIMURIUM, Strain/Indicator: TA2637, Metabolic Activation: RAT, LIVER, S-9, PCB, Method: STANDARD PLATE) “active; positive”.
In the case of `N#CC(Cl)(Cl)Cl`, the mutagenic call reads like this: (Test System: AMES SALMONELLA TYPHIMURIUM, Strain/Indicator: TA98, Metabolic Activation: NONE, Method: FLUCTUATION (MICROTITER)) “inactive; negative”; under setting [2], “inactive; negative”; (Test System: AMES SALMONELLA TYPHIMURIUM, Strain/Indicator: TA98, Metabolic Activation: RAT LIVER S-9, AROCLOR 1254, Method: FLUCTUATION (MICROTITER)) “inactive; negative”; (Test System: AMES SALMONELLA TYPHIMURIUM, Strain/Indicator: TA98, Metabolic Activation: RAT, LIVER, S-9, AROCLOR 1254, Method: STANDARD PLATE) “inactive; negative”; (Test System: AMES SALMONELLA TYPHIMURIUM, Strain/Indicator: TA100, Metabolic Activation: NONE, Method: FLUCTUATION TEST) “active; positive”; under setting [5], “inactive; negative”. Besides, the mutagenic call is “inactive; negative” (Test System: AMES SALMONELLA TYPHIMURIUM, Strain/Indicator: TA100, Metabolic Activation: RAT, LIVER, S-9, AROCLOR 1254, Method: FLUCTUATION TEST); “inactive; negative” (Test System: AMES SALMONELLA TYPHIMURIUM, Strain/Indicator: TA100, Metabolic Activation: RAT, LIVER, S-9, AROCLOR 1254, Method: STANDARD PLATE); “inactive; negative” (Test System: AMES SALMONELLA TYPHIMURIUM, Strain/Indicator: TA1535, Metabolic Activation: NONE, Method: STANDARD PLATE); “inactive; negative” (Test System: AMES SALMONELLA TYPHIMURIUM, Strain/Indicator: TA1535, Metabolic Activation: RAT, LIVER, S-9, AROCLOR 1254, Method: STANDARD PLATE); “inactive; negative” (Test System: AMES SALMONELLA TYPHIMURIUM, Strain/Indicator: TA1537, Metabolic Activation: NONE, Method: FLUCTUATION (MICROTITER)); “inactive; negative” (Test System: AMES SALMONELLA TYPHIMURIUM, Strain/Indicator: TA1537, Metabolic Activation: RAT LIVER S-9, AROCLOR 1254, Method: FLUCTUATION (MICROTITER)). The mutagenic call (Test System: AMES SALMONELLA TYPHIMURIUM, Strain/Indicator: TA7001, Metabolic Activation: NONE, Method: FLUCTUATION (MICROTITER)) is “inactive; negative”; the mutagenic call (Test System: AMES SALMONELLA TYPHIMURIUM, Strain/Indicator: TA7001, Metabolic Activation: RAT LIVER S-9, AROCLOR 1254, Method: FLUCTUATION (MICROTITER)) was “inactive; negative”; the mutagenic call (Test System: AMES SALMONELLA TYPHIMURIUM, Strain/Indicator: TA7002, Metabolic Activation: NONE, Method: FLUCTUATION (MICROTITER)) is “inactive; negative”; the mutagenic call (Test System: AMES SALMONELLA TYPHIMURIUM, Strain/Indicator: TA7002, Metabolic Activation: RAT LIVER S-9, AROCLOR 1254, Method: FLUCTUATION (MICROTITER)) was “inactive; negative”; the mutagenic call (Test System: AMES SALMONELLA TYPHIMURIUM, Strain/Indicator: TA7003, Metabolic Activation: NONE, Method: FLUCTUATION (MICROTITER)) is “inactive; negative”; the mutagenic call (Test System: AMES SALMONELLA TYPHIMURIUM, Strain/Indicator: TA7003, Metabolic Activation: RAT LIVER S-9, AROCLOR 1254, Method: FLUCTUATION (MICROTITER)) was “inactive; negative”. Moreover, the mutagenic call (Test System: AMES SALMONELLA TYPHIMURIUM, Strain/Indicator: TA7004, Metabolic Activation: NONE, Method: FLUCTUATION (MICROTITER)) was “inactive; negative”; the mutagenic call (Test System: AMES SALMONELLA TYPHIMURIUM, Strain/Indicator: TA7004, Metabolic Activation: RAT LIVER S-9, AROCLOR 1254, Method: FLUCTUATION (MICROTITER)) was “inactive; negative”; the mutagenic call (Test System: AMES SALMONELLA TYPHIMURIUM, Strain/Indicator: TA7005, Metabolic Activation: NONE, Method: FLUCTUATION (MICROTITER)) is “inactive; negative”; the mutagenic call (Test System: AMES SALMONELLA TYPHIMURIUM, Strain/Indicator: TA7005, Metabolic Activation: RAT LIVER S-9, AROCLOR 1254, Method: FLUCTUATION (MICROTITER)) was “inactive; negative”; the mutagenic call (Test System: AMES SALMONELLA TYPHIMURIUM, Strain/Indicator: TA7006, Metabolic Activation: NONE, Method: FLUCTUATION (MICROTITER)) was “inactive; negative”; the mutagenic call (Test System: AMES SALMONELLA TYPHIMURIUM, Strain/Indicator: TA7006, Metabolic Activation: RAT LIVER S-9, AROCLOR 1254, Method: FLUCTUATION (MICROTITER)) is “inactive; negative”.
For the compound `Oc1cc(Cl)ccc1Cl`, the mutagenic call reads like this: (Test System: AMES SALMONELLA TYPHIMURIUM, Strain/Indicator: TA98, Metabolic Activation: HAMSTER, LIVER, S-9, AROCLOR 1254, Method: PREINCUBATION) “inactive; negative”; under setting [1], “inactive; negative”; under setting [3], “inactive; negative”; (Test System: AMES SALMONELLA TYPHIMURIUM, Strain/Indicator: TA100, Metabolic Activation: HAMSTER, LIVER, S-9, AROCLOR 1254, Method: PREINCUBATION) “inactive; negative”; under setting [4], “inactive; negative”; under setting [6], “inactive; negative”. In addition, the mutagenic call runs as follows: (Test System: AMES SALMONELLA TYPHIMURIUM, Strain/Indicator: TA1535, Metabolic Activation: HAMSTER, LIVER, S-9, AROCLOR 1254, Method: PREINCUBATION) “inactive; negative”; under setting [7], “inactive; negative”; under setting [8], “inactive; negative”; (Test System: AMES SALMONELLA TYPHIMURIUM, Strain/Indicator: TA1537, Metabolic Activation: HAMSTER, LIVER, S-9, AROCLOR 1254, Method: PREINCUBATION) “inactive; negative”; (Test System: AMES SALMONELLA TYPHIMURIUM, Strain/Indicator: TA1537, Metabolic Activation: NONE, Method: PREINCUBATION) “inactive; negative”; (Test System: AMES SALMONELLA TYPHIMURIUM, Strain/Indicator: TA1537, Metabolic Activation: RAT, LIVER, S-9, AROCLOR 1254, Method: PREINCUBATION) “inactive; negative”. Further, the mutagenic call (Test System: CHINESE HAMSTER OVARY CELLS, Strain/Indicator: CHO-K1-BH4 (HPRT)/6-THIOGUANINE, Metabolic Activation: NONE, Method: PREINCUBATION) is “inactive; negative” and the mutagenic call (Test System: CHINESE HAMSTER OVARY CELLS, Strain/Indicator: CHO-K1-BH4 (HPRT)/6-THIOGUANINE, Metabolic Activation: S-9, Method: PREINCUBATION) is “inactive; negative”.
